Experimental data reported in ChEMBL document CHEMBL3507680, “University of Dundee, Gates Library screen for HepG2 cell viability”.

Test: Human HepG2 cell viability assay in 384 well format
Format: toxicity, cell-based
Parameters: dose 125 nL, time 70.5 hour; concentration not given beside the values
Details: HepG2 cells, read-out: Inhibition

SMILES: COCCCN1CC2(CCN(C(=O)Cc3csc(C)n3)CC2)CC1=O
- cytotoxicity at 70.5 h: -7.77%

SMILES: O=C1CC(NCc2ccncc2)CN1CCc1cccc(Cl)c1 (stereo not given)
- cytotoxicity at 70.5 h: -6.56%

SMILES: Cc1ccc2nc(-c3cnc(N)nc3)cc(C(=O)N(C)C)c2c1
- cytotoxicity at 70.5 h: 1.63%

SMILES: COCC(=O)N1C[C@H]2CNC[C@@]2(C(=O)NCc2nc(C)cc(C)n2)C1
- cytotoxicity at 70.5 h: -7.28%

SMILES: COc1ccc(-c2cccc(-c3ccn(CC4COCCO4)n3)c2)nn1 (stereo not given)
- cytotoxicity at 70.5 h: -5.24%

SMILES: CCN(Cc1noc(C2CCC2)n1)C(=O)c1cnc2ccccc2c1
- cytotoxicity at 70.5 h: 13.1%

SMILES: CCc1noc(C)c1C(=O)N1CCC2(CCCN(CC(C)(C)C)C2=O)C1 (stereo not given)
- cytotoxicity at 70.5 h: -5.92%

SMILES: CC(=O)N1CC2(CCN(c3nccc4ccccc34)CC2)CC1C(=O)O (stereo not given)
- cytotoxicity at 70.5 h: -9.28%

SMILES: CC(C)N1CCOC(CC(=O)N2CCCN(Cc3cccs3)CC2)C1 (stereo not given)
- cytotoxicity at 70.5 h: -11.6%

SMILES: CCN1CCCC(CN(C)c2nccc(-c3ccc(C)nc3C)n2)C1 (stereo not given)
- cytotoxicity at 70.5 h: -1.39%

SMILES: OCc1ccc(CN(CCCn2ccnc2)Cc2cccnc2)o1
- cytotoxicity at 70.5 h: -8.65%

SMILES: COCCN1CCC(CNC(=O)Nc2ccc(F)c(Cl)c2)C1 (stereo not given)
- cytotoxicity at 70.5 h: 24.8%

SMILES: CCc1cc(NCC(O)CN2CCCC2)ncn1 (stereo not given)
- cytotoxicity at 70.5 h: 21.2%

SMILES: O=C1O[C@@H]2CN(Cc3cc4ccccc4s3)C[C@@H]2N1Cc1ccccn1
- cytotoxicity at 70.5 h: -6.44%

SMILES: c1cc(-c2nccn2CCc2nc3c(s2)CCC3)ccn1
- cytotoxicity at 70.5 h: 12.9%

SMILES: NCC1Cc2cc(Cl)cc(-c3cncc(C(=O)N4CCCCC4)n3)c2O1 (stereo not given)
- cytotoxicity at 70.5 h: -6.78%

SMILES: Cc1noc(C)c1C(=O)N1CCCC(c2nccn2Cc2cscn2)C1 (stereo not given)
- cytotoxicity at 70.5 h: -5.18%

SMILES: O=C(NCc1ccc(F)cc1F)C(c1cccnc1)N1CCOCC1 (stereo not given)
- cytotoxicity at 70.5 h: -0.235%

SMILES: c1nc(N2CCCC2)ncc1CN1CCCC(CN2CCCCC2)C1 (stereo not given)
- cytotoxicity at 70.5 h: 24.4%

SMILES: CC(C)[C@H]1CN(c2ccncc2)C[C@@H]1NS(=O)(=O)N(C)C
- cytotoxicity at 70.5 h: -4.27%

SMILES: Cc1cc(N[C@@H](CO)c2ccccc2)n2nc(C)c(C)c2n1
- cytotoxicity at 70.5 h: -2.95%

SMILES: CCCN(Cc1nccn1C)C(=O)C(CC)Nc1cccc(OC)c1 (stereo not given)
- cytotoxicity at 70.5 h: -3.17%

SMILES: Cc1nc(CN2CCCC23CCN(c2nc4ccccc4s2)CC3)co1
- cytotoxicity at 70.5 h: -12.9%

SMILES: CC(=O)N1CCN(Cc2cccc3c2sc2ccccc23)CC(O)C1 (stereo not given)
- cytotoxicity at 70.5 h: -5.85%

SMILES: CSc1ncc(CNC(C)c2cnn(-c3ccc(F)cc3F)c2C)cn1 (stereo not given)
- cytotoxicity at 70.5 h: -2.86%

SMILES: CN1CCn2nc(-c3nc4ccccc4n3C)cc2C1
- cytotoxicity at 70.5 h: 32.2%

SMILES: COCCN(C)C(C(=O)O)c1cc(Cl)ccc1OC (stereo not given)
- cytotoxicity at 70.5 h: 7.55%

SMILES: O=C(c1cn(CC(=O)N2CCCC2)c2ccccc12)C1CC1
- cytotoxicity at 70.5 h: -2.27%

SMILES: CCc1cc(N(C)Cc2nonc2C)nc(N(C)C)n1
- cytotoxicity at 70.5 h: 7.36%

SMILES: Cc1nc(CNCc2ccc(OC34CCCN(CC3)C4)cc2)n[nH]1 (stereo not given)
- cytotoxicity at 70.5 h: -5.4%

SMILES: CN(Cc1cnc(N)nc1)CC1CCCN(CCc2ccc(Cl)cc2)C1 (stereo not given)
- cytotoxicity at 70.5 h: 8.66%

SMILES: CC[C@@H](CO)NC(=O)c1cc(COc2ccc(OC)cc2Cl)[nH]n1
- cytotoxicity at 70.5 h: -3.92%

SMILES: NC(=O)c1ccccc1-n1cc(-c2cccc(C(=O)O)c2)cn1
- cytotoxicity at 70.5 h: -9.16%

SMILES: CCNc1ccnc(NCc2cn3nc(C)sc3n2)n1
- cytotoxicity at 70.5 h: -15.7%

SMILES: Fc1cc(Cl)cnc1N1CCCC(c2nccn2CC2CC2)C1 (stereo not given)
- cytotoxicity at 70.5 h: 22.7%

SMILES: COCCN(Cc1sccc1C)C(=O)C1CCN(C(C)C)CC1
- cytotoxicity at 70.5 h: -2.9%

SMILES: Cc1cccc2cc(CN3CCC(N4CCCC4)CC3)c(=O)[nH]c12
- cytotoxicity at 70.5 h: -6.75%

SMILES: c1ccc(-c2nc(CCNC3CCOC4(CCOCC4)C3)no2)cc1 (stereo not given)
- cytotoxicity at 70.5 h: -8.69%

SMILES: NCCc1nc(N[C@@H](CO)c2ccccc2)c2ccccc2n1
- cytotoxicity at 70.5 h: 7.85%

SMILES: CN(C)c1ncnc2c1CCN(S(=O)(=O)c1ccccc1C(F)(F)F)C2
- cytotoxicity at 70.5 h: 1.88%

SMILES: CC(C)(C)C(=O)N1CCC(n2cc(C3(O)CCCC3)nn2)CC1
- cytotoxicity at 70.5 h: -9.39%

SMILES: CCc1ncc(C(=O)N2CCN(C(=O)COc3ccccc3)CC2)cn1
- cytotoxicity at 70.5 h: -3.1%

SMILES: Cc1nccn1CCC1CCN(c2ccncn2)CC1
- cytotoxicity at 70.5 h: -2.98%

SMILES: CN1C[C@@H](NC(=O)C(C)(C)C)C[C@H]1C(=O)NCc1ncc[nH]1
- cytotoxicity at 70.5 h: -8.54%

SMILES: Cc1cccc2[nH]c(C3CCN(C(=O)c4c[nH]c(=O)[nH]c4=O)CC3)nc12
- cytotoxicity at 70.5 h: -7.98%

SMILES: Cc1c(C(C)NC(=O)Nc2ccc(F)cc2F)cnn1C (stereo not given)
- cytotoxicity at 70.5 h: -3.54%

SMILES: OCC1CCCCN1CCCNCc1cc(O)c2cc(F)ccc2n1 (stereo not given)
- cytotoxicity at 70.5 h: -4.1%

SMILES: Cc1nonc1CN(C)c1nc(-c2cccnc2)nc2c1CCNC2
- cytotoxicity at 70.5 h: 0.678%

SMILES: COCCN1CCC(CN(CC2CCCO2)C(=O)Cn2cccn2)CC1 (stereo not given)
- cytotoxicity at 70.5 h: -4.66%

SMILES: Cc1nc(-c2cccc(N3CCC(N4CCCC4)CC3)c2)cs1
- cytotoxicity at 70.5 h: 13.8%

SMILES: O=C(c1ccc2sccc2c1)N1CCC(C(=O)O)(n2cccn2)CC1
- cytotoxicity at 70.5 h: -6.51%

SMILES: COc1cnc(N2CCCN(Cc3ccc(F)cc3)CC2)nc1
- cytotoxicity at 70.5 h: 4.55%

SMILES: CC(C)=CCN1Cc2nnc(C3CCOCC3)n2C(Cc2c[nH]cn2)C1 (stereo not given)
- cytotoxicity at 70.5 h: -5.43%

SMILES: Cc1nccnc1N1Cc2cnn(Cc3ccc(F)cc3)c2C1
- cytotoxicity at 70.5 h: -0.0825%

SMILES: CCNc1ccc(-c2ccnc3c2ccn3C)nn1
- cytotoxicity at 70.5 h: -5.15%

SMILES: CCC(C)N(CC)C(=O)c1ccc2[nH]nnc2c1 (stereo not given)
- cytotoxicity at 70.5 h: -6.36%

SMILES: CCn1cc(CN(C)Cc2cnn(-c3ccc(F)cc3)c2)cn1
- cytotoxicity at 70.5 h: 13.5%

SMILES: c1coc(-c2nc(CNC3CCC4(CCNCC4)CC3)no2)c1
- cytotoxicity at 70.5 h: -3.78%

SMILES: Cc1nccn1C1(C(=O)O)CCN(Cc2ccc3c(c2)OCCO3)CC1
- cytotoxicity at 70.5 h: -3.95%

SMILES: O=C(c1ccc(S(=O)(=O)NCc2ccon2)cc1)N1CCNCC1
- cytotoxicity at 70.5 h: -6.36%

SMILES: CN(C)S(=O)(=O)N1CCOCC1CC(=O)NCCOc1ccccc1 (stereo not given)
- cytotoxicity at 70.5 h: -15.5%

SMILES: O=C(CC1COCCN1)N1CCCN(C2Cc3ccccc3C2)CC1 (stereo not given)
- cytotoxicity at 70.5 h: -3.92%

SMILES: Cc1cc(C2CCC2)nc(N(C)Cc2ncccc2C)n1
- cytotoxicity at 70.5 h: 2.14%

SMILES: COc1cccc(-c2n[nH]c3c2CN(C(=O)c2ccncc2)CC3)c1
- cytotoxicity at 70.5 h: -5.87%

SMILES: COc1cc(C)cc(-c2nc3c([nH]2)CCNC3)c1OC
- cytotoxicity at 70.5 h: 9.79%

SMILES: O=C(NC1CC1)C1CNCCN1C(=O)CCc1ccc2c(c1)OCO2 (stereo not given)
- cytotoxicity at 70.5 h: -3.72%

SMILES: O=C(c1cc2c([nH]c1=O)CCC2)N1CCCCC1c1cccc(F)c1 (stereo not given)
- cytotoxicity at 70.5 h: 2.02%

SMILES: COCCC(=O)N1CCCC(CCc2ccc(F)c(F)c2)C1 (stereo not given)
- cytotoxicity at 70.5 h: -9.08%

SMILES: O=C(O)C(c1ccc(Cl)c(F)c1)N1CCN(Cc2ccccn2)CC1 (stereo not given)
- cytotoxicity at 70.5 h: -2.57%

SMILES: CCCc1cc(C(=O)N2C[C@H]3CC=C(C)C[C@H]3C2)ccn1
- cytotoxicity at 70.5 h: -8.24%

SMILES: N#Cc1cccc(C(=O)N2CCCC(C(=O)CCc3ccccc3)C2)c1 (stereo not given)
- cytotoxicity at 70.5 h: -5.64%

SMILES: O=C1CCCN1CCN1CC[C@@]2(O)CCN(c3ncccn3)C[C@H]2C1
- cytotoxicity at 70.5 h: 15.5%

SMILES: COc1ccc([C@@H]2CN(Cc3cccnc3N)C[C@H]2N(C)C)cc1
- cytotoxicity at 70.5 h: -2.88%

SMILES: CCc1nc2c(NCC3COc4ccccc4C3)ncnc2o1 (stereo not given)
- cytotoxicity at 70.5 h: -1.81%

SMILES: OCC1(O)CCN(Cc2ccc(-c3cc[nH]n3)s2)CC1
- cytotoxicity at 70.5 h: 6.86%

SMILES: Cc1c(-c2c(-c3ccccc3)ncn2[C@H](CO)C(=O)O)cnn1C
- cytotoxicity at 70.5 h: -7.01%

SMILES: CCC[C@@H]1CN(Cc2c[nH]c(CC3CCCC3)n2)C[C@H]1C(=O)O
- cytotoxicity at 70.5 h: -7.4%

SMILES: CC(C)CC(O)C1CCN(C(=O)c2ccc(C(C)C)[nH]c2=O)CC1 (stereo not given)
- cytotoxicity at 70.5 h: 18.9%

SMILES: COC(=O)c1cc(CN2CCN(c3nc(C)cnc3C)CC2)ccc1O
- cytotoxicity at 70.5 h: -1.95%

SMILES: Cc1nc[nH]c1CN(C)CC1CCCN(CCc2ccc(Cl)cc2)C1 (stereo not given)
- cytotoxicity at 70.5 h: 20.5%
